Test results published in publication PMC6099102, “Effect of the Nature of Donor Atoms on the Thermodynamic, Kinetic and Relaxation Properties of Mn(II) Complexes Formed With Some Trisubstituted 12-Membered Macrocyclic Ligands” (Frontiers in Chemistry, 2018).

Tests used:
[1] = Protonation constants of the ligands by pH-potentiometric titration; type: physicochemical; conditions: I = 0.15 M NaCl, 25 °C; for Σ log K2H: log K1H + log K2H
Procedure: (§1) The concentration of the ligand solutions was determined by pH-potentiometric titration in the presence and absence of an excess (5–10 fold) of MnCl2. For determining the protonation constants of the investigated ligands, pH-potentiometric titrations were made by means of 0.2 M standardized NaOH in 2 and 3 mM ligand solutions in the pH-range of 1.75–11.85. All equilibrium measurements were performed at a constant 0.15 M NaCl ionic strength at 25 °C. The protonation and the stability constants of the Mn(II) complexes were determined by pH-potentiometric titrations (DOTP, DO3A, PCTA, ODO3A, DO3P) while owing to the slow formation rates of Mn(II) complexes formed with amide type ligands, the stability constants of DOTAM, DOTMA, DO3AM^H, PC3AM^H, PC3AM^Gly, PC3AM^Pip complexes were determined by out-of-cell pH-potentiomertry in combination with ^1H relaxometry. The metal-to-ligand concentration ratio in the solutions was 1:1. For the calculation of protonation constants of the ligands and the log KMnL and log KMnLHi values of the complexes, mL–pH data pairs (50–180), obtained in the pH range of 1.75–11.85 or r1obs-pH data pairs (10–15 batch samples) obtained in the pH range of 2–4.5 were used (the samples were equilibrated for 4–7 days). The equilibrium constants characterizing the deprotonation that occurs at basic pH were determined from the data obtained via direct pH-potentiometric titrations performed on the pre-formed complexes.
(§2) The pH-potentiometric titrations were carried out with a Methrohm 888 Titrando titration workstation using a Metrohm-6.0233.100 combined electrode. The samples (6.00 mL) were thermostated at 25 °C. The samples were stirred and kept under inert gas (N2) to avoid the effect of CO2. KH-phthalate (pH = 4.005) and borax (pH = 9.177) buffers were used for the pH-calibration. The method proposed by Irving et al. was used for the calculation of H^+ concentrations from the measured pH values (Irving et al., [1967]). A 0.01 M HCl (I = 0.15 M set with NaCl) solution was titrated with standardized NaOH solution of known concentration (approx. 0.2 M). The correction factor obtained as difference of calculated pH and measured pH values was used to calculate the [H^+] in the samples. The ionic product of water was determined from the same titrations (HCl/NaOH) from the data collected in the pH range of 11.20–11.85.
The protonation and complexation equilibria of the macrocyclic ligands and their Mn(II) complexes have been studied by pH-potentiometric and relaxometric methods in the presence of 0.15 M NaCl whose ionic strength mimics the physiological conditions. The protonation constants of the ligands were evaluated by fitting the pH-V(mL) base data pairs collected in the pH-potentiometric titrations. The protonation equilibria of the ligands can be described by Equation (2). (a comparison of previously published log K^H data available in the Supplementary Material) together with the constants of H4DOTA, cis- and trans-H2DO2A derivatives given for comparison. (2) KiH=[HiL]/[Hi-1L][H^+],i=1,2,…

[2] = Stability and protonation constants and pMn of the Mn(II) complexes (pH-potentiometry and/or 1H relaxometry); type: physicochemical; conditions: I = 0.15 M NaCl, 25 °C; for pMn: calculated at pH = 7.4, cM = cL = 10^−5 M; for log KMLH: protonation constant of the Mn(II) complex
Procedure: as §1, §2
The relaxometric data were collected using a Bruker Minispec MQ20 NMR relaxometer. […] A datapoint plotted on figures represents an average of 5–6 T1 measurements (Figures S3–S9 in Supplementary Material). The data were fitted by using the molar r1p relaxivity value of the MnCl2 ([…] at 0.49 T and 25 °C). The equilibrium constants were calculated using the PSEQUAD program (Zékány and Nagypál, [1985]).
In order to gain information on the thermodynamic stability of the Mn(II) complexes, samples containing the metal and ligand in 1 to 1 molar ratio were studied by pH potentiometry or ^1H-relaxometry and in some cases by a combination of the two methods. The titration data were fitted by assuming the existence of [M(L)] and some protonated species ([M(HiL)]) at lower pH values. In some cases to fit the data obtained at higher pH, the formation of ternary hydroxido complexes ([M(L)(OH)]) were also included in the equilibrium model. The stability constants (KML) and the various protonation forms (KMHiL) of ML metal chelates are defined by Equations (3)–(5). However, a comparison of the stabilities of different complexes solely on the basic of their stability constants might be misleading because of the differences in ligand basicities. […] The pMn value accounts for the effect of proton competition (ligand basicity and complex protonation) on the stability constant essentially offering the same information as the conditional stability constant. Higher pMn values indicate a higher chelate stability at specified conditions. […]

[3] = ref Rolla et al. ([2013]); cited from earlier work
[4] = stability constant of the Mn(II) complex
[5] = stability constant of the Mn(II) complex by 1H-relaxometry

Compound | log K1H ([1]; ligand protonation constant) | log K2H ([1]; ligand protonation constant) | log K3H ([1]; ligand protonation constant) | log K4H ([1]; ligand protonation constant) | log K5H ([1]; ligand protonation constant) | Σ log K2H [1] | pMn [2] | log KMLH [2] | log KML [2, 4] | r1p [3] | log K6H ([1]; ligand protonation constant) | log KMHLH ([2]; second protonation constant of the Mn(II) complex) | log KMH2LH ([2]; third protonation constant of the Mn(II) complex) | log KML [2, 5] | log KMLOH ([2]; ternary hydroxido complex of Mn(II))
O=C(O)CN1CCNCCN(CC(=O)O)CCN(CC(=O)O)CC1 [DO3A] | 10.07 (5) | 8.93 (6) | 4.43 (9) | 4.11 (7) | 1.88 (7) | 19.00 | 8.66 | 4.26 (2) | 16.55 (4) | 1.30 mM⁻¹ s⁻¹ | – | – | – | – | –
O=P(O)(O)CN1CCNCCN(CP(=O)(O)O)CCN(CP(=O)(O)O)CC1 [DO3P] | 12.55 (2) | 11.37 (1) | 8.57 (2) | 7.02(2) | 5.36 (2) | 23.92 | 6.43 | 8.06 (2) | 17.45 (2) | – | 1.84 (2) | 7.05 (1) | 5.31 (2) | – | –
NC(=O)CN1CCN(CC(N)=O)Cc2cccc(n2)CN(CC(N)=O)CC1 [PC3AM^H] | 8.76 (3) | 4.10 (4) | – | – | – | 12.86 | 7.77 | – | 11.94(3) | – | – | – | – | 11.78 (8) | 10.90 (4)
O=C(O)CN1CCN(CC(=O)O)Cc2cccc(n2)CN(CC(=O)O)CC1 [PCTA] | 9.97 (3) | 6.73 (5) | 3.22 (6) | 1.40 (9) | – | 16.70 | 9.74 | 1.96(1) | 16.83 (1) | – | – | – | – | 16.64 (7) | –
O=C(CN1CCN(CC(=O)N2CCCCC2)Cc2cccc(n2)CN(CC(=O)N2CCCCC2)CC1)N1CCCCC1.[Mn+2] [[Mn(PC3AM^Pip)]^2+] | – | – | – | – | – | – | 8.86 | – | – | – | – | – | – | – | –
